Patent US10000787B2, “Methods for diagnosing bacterial infections” (STC.UNM, priority 2012, dated 2018)

Target: T1, pHPA decarboxylase (Clostridioides difficile, UniProt Q84F16)
T1 construct: Isolated cell free extract of C. difficile; endogenous in cells; host or cells: C. difficile cell-free extract
Experiment: estimated ^13CO2 production from labeled substrate by pHPA decarboxylase in a C. difficile infection
Assay type: in vivo
Details: infection in which 10 mg of bacterial protein is present; worked out from 12 mU per mg of protein pHPA decarboxylase in isolated cell free extract of C. difficile
Description: The compositions of the invention can also be administered intravenously. Isolated cell free extract of C. difficile contains 12 mU per mg of protein of the activating enzyme pHPA decarboxylase. This correlates to the production of 2.7 mL of ^13CO2 per minute in an infection in which 10 mg of bacterial protein is present when a patient is treated with a compound of the invention, for example, ^13C-hydroxyphenylacetate. Oftentimes, a patient is infected with much more than 10 mg of bacterial protein with a C. difficile infection.
Assuming 15 liters of air is respired per minute, and with 4% exhaled CO2, a patient will exhale about 600 ml of CO2 per minute, of which approximately 6.6 mLs will be ^13CO2. […] Thus, efficient delivery of isotopically-labeled compound is important. Preferably, an intravenous dosage form is administered to the patient, leading to rapid increases in intestinal levels, and allowing breath testing from 10 to 120 minutes after dosage. Such dosage forms are sterile and particle-free. Preparation methods for such dosage forms are known in the art.

T1 sequence (Q84F15 whole entry): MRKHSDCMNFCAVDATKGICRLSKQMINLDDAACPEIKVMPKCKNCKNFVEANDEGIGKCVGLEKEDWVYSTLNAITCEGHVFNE
T1 sequence (Q84F16 whole entry): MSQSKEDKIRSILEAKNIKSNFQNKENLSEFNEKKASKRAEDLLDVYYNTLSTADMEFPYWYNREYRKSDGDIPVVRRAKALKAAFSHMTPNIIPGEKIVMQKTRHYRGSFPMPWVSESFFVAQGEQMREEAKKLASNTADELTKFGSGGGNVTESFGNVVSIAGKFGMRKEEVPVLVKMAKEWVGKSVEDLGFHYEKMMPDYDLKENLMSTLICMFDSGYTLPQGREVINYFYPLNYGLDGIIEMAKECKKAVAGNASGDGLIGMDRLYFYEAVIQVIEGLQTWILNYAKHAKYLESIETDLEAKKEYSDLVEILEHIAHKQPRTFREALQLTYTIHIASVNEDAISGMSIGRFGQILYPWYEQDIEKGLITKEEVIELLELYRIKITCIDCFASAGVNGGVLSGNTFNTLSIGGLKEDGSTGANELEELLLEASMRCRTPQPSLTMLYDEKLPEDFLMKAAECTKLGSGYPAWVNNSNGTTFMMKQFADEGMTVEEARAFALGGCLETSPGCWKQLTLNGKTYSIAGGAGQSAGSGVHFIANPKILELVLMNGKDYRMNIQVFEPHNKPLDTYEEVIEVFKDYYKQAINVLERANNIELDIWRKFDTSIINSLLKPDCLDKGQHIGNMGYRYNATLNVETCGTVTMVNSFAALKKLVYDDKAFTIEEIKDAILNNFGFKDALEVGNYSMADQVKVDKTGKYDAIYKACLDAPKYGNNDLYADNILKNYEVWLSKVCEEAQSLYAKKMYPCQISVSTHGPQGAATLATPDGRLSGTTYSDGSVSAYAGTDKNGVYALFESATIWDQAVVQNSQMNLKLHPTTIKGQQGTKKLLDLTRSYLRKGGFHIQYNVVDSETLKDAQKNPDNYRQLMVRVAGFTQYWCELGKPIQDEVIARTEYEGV

^13C-hydroxyphenylacetate
production of ^13CO2: 2.7 mL per minute
